In patent publication US5622947A, “Benzoheterocyclic compounds and vasopressin antagonist and oxytocin antagonist compositions containing a benzoheterocyclic compound” (Otsuka Pharmaceutical Co., Ltd., priority 1992, dated 1997):

Experiments:
[1] = test system: increase in the diastolic pressure caused by vasopressin; assay: Vasopressin antagonistic activity in vivo; settings: Rattus norvegicus; oral, awake male SD-rats, vasopressin 30 mU/kg i.v.; read-out: ID50 (oral dose required to achieve 50% inhibitory effect on increase in diastolic pressure)
Protocol: Test-3: Vasopressin antagonistic activity in vivo
In order to test the vasopressin antagonistic activity of the compound of the present invention when admistered orally to rats under awaking, the following experiment was conducted. Cannulas were inserted into the aorta abdominalis and the carotid arteries of male SD-rats (body weight: 300-450 g) under pentobarbital-anesthetization. A few days thereafter, vasopressin (30 mU/kg) was administered intravenously to the rats under awaking with measuring the blood pressure at the cannula inserted into the arorta abdominalis by a piezo-electric transducer. The test compound was dissolved in polyethylene glycol or water, or suspended in 5% gum arabic solution, and orally administered by force to the rats.
The increase in the diastolic pressure of the rat was periodically mesured at 30 minutes' interval after the administration of vasopressin for 8 hours. The rate of inhibitory effect (%) of the test compound on the increase in the diastolic pressure caused by vasopressin (30 mU/kg) was calculated based on the increase in the diastolic pressure when vasopressin (30 mU/kg) was intravenously administered without a test compound.
The test result is expressed as ID50 value, which is the oral dose of the test compound required to achieve the inhibitory effect in the rate of 50% and is shown in Table 158 as follows: […]

[2] = Anti-antiduretic water diuretic activity in vivo; settings: oral, male SD-rats, first 2 hours, vs control group; read-out: ED3 (oral dose required to increase the amount of urine excreted for the first 2 hours)
Protocol: Test-4: Anti-antiduretic water diuretic/activity in vivo
The test compound of the present invention was dissolved in polyethylene glycol 400 or water or suspended in 5% gum arabic aqueous solution, and the mixture was orally administered by force to male SD-rats (body weight: 300 to 400 g) under untreated and unrestrained. After administration the rats were kept in a metabolism cage and the amount of urine spontaneously excreted by the rats was measured at 2 hours' interval, during which the rats could freely be given feed and water.
In the cotrol group, a solvent was administered instead of a test compound solution (or suspension).
The test results are expressed as ED3, which is the oral dose of the test compound which is required to increase the amount of the urine excreted from the rat in the test compound-treated group for the first 2 hours by time based on the amount of urine excreted from the rat for the first 2 hours in the control group.

[3] = target: T1, V1 Recepter (rat liver plasma membrane preparations) (Rattus norvegicus, UniProt P30560); assay: V1 Recepter binding assay; settings: [3H]-Arg-vasopressin 2×10^-10 M, 37° C., 10 minutes, pH 8.0, rat liver plasma membrane
T1 construct: rat liver plasma membrane preparations; from tissue; host or cells: rat liver plasma membranes
T1 sequence (P30560 whole entry): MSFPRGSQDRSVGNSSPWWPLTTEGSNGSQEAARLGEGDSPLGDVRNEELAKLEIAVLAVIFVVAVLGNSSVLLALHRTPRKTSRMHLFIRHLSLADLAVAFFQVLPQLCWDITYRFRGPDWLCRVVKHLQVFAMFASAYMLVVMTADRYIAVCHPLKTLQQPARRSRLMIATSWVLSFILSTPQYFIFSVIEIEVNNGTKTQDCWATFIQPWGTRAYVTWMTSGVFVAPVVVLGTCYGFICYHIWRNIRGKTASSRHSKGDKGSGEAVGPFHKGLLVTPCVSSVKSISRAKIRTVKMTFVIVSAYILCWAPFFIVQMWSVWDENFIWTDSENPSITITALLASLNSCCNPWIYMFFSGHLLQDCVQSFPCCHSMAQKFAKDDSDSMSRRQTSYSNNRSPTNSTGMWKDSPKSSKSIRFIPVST
How it was run: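 Rat liver plasma membranes incubated with [3H]-Arg-vasopressin (2×10^-10 M) and compound (10^-8 to 10^-4 M) for 10 min at 37° C in Tris-HCl pH 8.0 with MgCl2, EDTA, BSA. Bound label separated by glass-fibre filtration, scintillation counted; nonspecific binding with 10^-6 M vasopressin; IC50 reported.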

[4] = target: T2, V2 Recepter (rat kidney plasma membrane preparations) (Rattus norvegicus, UniProt Q00788); assay: V2 Recepter binding assay; settings: [3H]-Arg-vasopressin 4×10^-10 M, 4° C., pH 8.0, rat kidney plasma membrane
T2 construct: rat kidney plasma membrane preparations; from tissue; host or cells: rat kidney plasma membranes
T2 sequence (Q00788 whole entry): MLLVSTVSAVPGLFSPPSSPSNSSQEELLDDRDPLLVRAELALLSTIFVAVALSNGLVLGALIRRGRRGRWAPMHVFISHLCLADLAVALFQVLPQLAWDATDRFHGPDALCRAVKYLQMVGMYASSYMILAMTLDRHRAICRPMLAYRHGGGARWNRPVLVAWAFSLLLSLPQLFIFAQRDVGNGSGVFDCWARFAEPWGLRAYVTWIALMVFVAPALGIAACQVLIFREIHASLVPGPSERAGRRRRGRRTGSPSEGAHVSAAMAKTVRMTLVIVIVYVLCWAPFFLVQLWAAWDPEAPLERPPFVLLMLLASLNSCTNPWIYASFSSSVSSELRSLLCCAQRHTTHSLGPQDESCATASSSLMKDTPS
How it was run: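 Rat kidney plasma membranes incubated with [^3H]-Arg-vasopressin (4×10^-10 M) and test compound (10^-10 to 10^-5 M) for 3 h at 4 °C in 100 mM Tris-HCl pH 8.0 with 5 mM MgCl2, 1 mM EDTA, 0.1% BSA. Bound label by filtration and scintillation counting; nonspecific binding with 10^-6 M vasopressin; IC50 reported.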

[5] = target: T3, Oxytocin receptor (uterin muscle membrane preparation) (Rattus norvegicus, UniProt P70536); assay: Oxytocin receptor binding assay; settings: [3H]-oxytocin 10^-9 M, 25°, one hour, pH 8.0, uterin muscle membrane, DES-treated
T3 construct: was homogenized, which was used as a membrane; from tissue; host or cells: uterine muscle membranes from diethylstilbestrol-treated animals
T3 sequence (P70536 1-388): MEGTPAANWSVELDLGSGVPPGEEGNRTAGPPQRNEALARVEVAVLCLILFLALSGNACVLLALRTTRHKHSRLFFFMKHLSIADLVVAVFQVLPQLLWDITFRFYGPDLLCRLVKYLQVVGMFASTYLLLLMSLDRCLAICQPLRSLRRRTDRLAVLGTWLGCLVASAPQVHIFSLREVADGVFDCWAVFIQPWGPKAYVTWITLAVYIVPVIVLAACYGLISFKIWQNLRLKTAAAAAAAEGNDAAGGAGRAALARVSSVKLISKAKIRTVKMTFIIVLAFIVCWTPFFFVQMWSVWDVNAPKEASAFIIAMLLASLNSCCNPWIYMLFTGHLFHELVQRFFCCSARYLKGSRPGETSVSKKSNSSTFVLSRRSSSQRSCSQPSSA
How it was run: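 Rat uterine membranes (0.2 mg; DES-primed day before) incubated 1 h at 25° with [3H]-oxytocin (10^-9 M) and compound (10^-9 to 10^-5 M) in 100 mM Tris-HCl pH 8.0, 5 mM MgCl2, 1 mM EDTA, 0.1% BSA. Filter-bound radioactivity counted; nonspecific with 5×10^-6 M oxytocin; IC50 reported.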

Row | Compound | ED50 [1] | ED (3-fold) [2] | IC50 [3] | IC50 [4] | IC50 [5]
1 | COc1cc(NC(=O)c2ccccc2C)ccc1C(=O)N1CCCC(CC(=O)N2CCN(C)CC2)c2cc(Cl)ccc21 (centres unmarked) [Example 63, 5-[(4-Methyl-1-piperazinyl)carbonylmethyl]-7-chloro-1-[2-methoxy-4-(2-methylbenzoylamino)benzoyl]-2,3,4,5-tetrahydro-1H-benzoazepine] | 3.4 mg/kg | 3.2 mg/kg |  |  | 
2 | COc1cc(NC(=O)c2ccccc2Cl)ccc1C(=O)N1CCCC(CC(=O)NCc2ccccn2)c2cc(Cl)ccc21 (centres unmarked) [Example 126, 5-(2-Pyridylmethyl)aminocarbonylmethyl-7-chlor-[2-methoxy-4-(2-chlorobenzoylamino)benzoyl]-2,3,4,5-tetrahydro-1H-benzoazepine] |  |  | 24 nM | 5 nM | 73 nM
3 | COc1cc(NC(=O)c2ccccc2Cl)ccc1C(=O)N1CCCC(OCCSc2ncc[nH]2)c2cc(Cl)ccc21 (centres unmarked) [Example 141, 5-[2-(2-Imidazolyl)thioethoxy]-7-chloro-1-[2-methoxy-4-(2-chlorobenzoylamino)benzoyl]-2,3,4,5-tetrahydro-1H-benzoazepine] |  |  | 56 nM | 7.6 nM | 193 nM
